Each structure is given as a SMILES string.

By IC50 is commonly meant the concentration that inhibits the measured activity by half. High values mean a need for much substance, low ones inhibition by little substance.

The target of the assay is GST tagged IRAK4 (Homo sapiens (Human), UniProt Q9NWZ3). The assay is described as follows: Determination of IRAK4 kinase activity (IMAP fluorescence polarization). In kind it is biochemical. To be noted: 0.5 nM GST tagged IRAK4, 100 nM fluorescent peptide substrate RP7030, 100 μM ATP, 30 minutes at 25° C. As to the method: The kinase activity of IRAK4 is determined by its ability to catalyze the phosphorylation of a fluorescent polypeptide substrate. The extent of phosphorylation is measured using IMAP technology (Molecular Devices) where the phosphorylated fluorescent substrate binds to the large M(III)-based nanoparticles which reduces the rotational speed of the substrate and thus increases its fluorescent polarization (FP).
GST tagged IRAK4, sequence (Q9NWZ3 whole entry): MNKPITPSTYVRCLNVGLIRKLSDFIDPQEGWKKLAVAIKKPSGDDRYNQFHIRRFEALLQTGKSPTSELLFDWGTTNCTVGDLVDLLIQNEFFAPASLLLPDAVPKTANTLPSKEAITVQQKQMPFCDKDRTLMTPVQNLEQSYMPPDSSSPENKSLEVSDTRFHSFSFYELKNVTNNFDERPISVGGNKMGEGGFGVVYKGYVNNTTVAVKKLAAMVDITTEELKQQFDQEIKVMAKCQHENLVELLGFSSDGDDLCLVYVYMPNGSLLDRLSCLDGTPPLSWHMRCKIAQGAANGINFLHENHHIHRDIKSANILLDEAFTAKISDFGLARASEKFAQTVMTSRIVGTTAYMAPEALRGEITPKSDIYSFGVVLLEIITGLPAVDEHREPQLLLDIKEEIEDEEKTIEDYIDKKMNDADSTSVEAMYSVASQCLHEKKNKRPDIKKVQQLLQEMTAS
Procedure: A 20 μl reaction mixture contains 10 mM TriHCl, pH 7.2, 0.5 nM GST tagged IRAK4 (SignalChem), 100 nM fluorescent peptide substrate (RP7030, Molecular Devices), 100 μM ATP, 1 mM DTT, 1 mM MgCl2, and 0.01% Tween 20. The reaction is initiated by the addition of ATP. After incubation for 30 minutes at 25° C., 60 μl of Progressive IMAP Reagent (Molecular Devices) is added to stop the reaction. Change in RP7030's FP is determined by a FP reader (Analyst HT, LJL BioSystems).
(In general: In fluorescence polarisation assays a small probe gives low polarisation when free and higher when bound to something large.)
Consider `Cn1cc(NC(=O)c2cccc(-c3ccnc(NCC4CC4)c3)n2)c(C(N)=O)n1` [Example 1, N-(3-carbamoyl-1-methyl-1H-pyrazol-4-yl)-2′-((cyclopropylmethyl)amino)-[2,4′-bipyridine]-6-carboxamide], for which 74 nM corresponded to half-maximal inhibition (IC50).
The compound `Cn1cc(NC(=O)c2cccc(-n3cccc3)n2)c(C(N)=O)n1` [Example 2, N-(3-carbamoyl-1-methyl-1H-pyrazol-4-yl)-6-(1H-pyrrol-1-yl)picolinamide] gave an IC50 of 649 nM.
Take `Cn1cc(NC(=O)c2cccc(-c3ccnc(NC(=O)OC(C)(C)C)c3)n2)c(C(N)=O)n1` [Example 4, tert-butyl(6-((3-carbamoyl-1-methyl-1H-pyrazol-4-yl)carbamoyl)-[2,4′-bipyridin]-2′-yl)carbamate]: the IC50 was determined as 785 nM.
`Cn1cc(NC(=O)c2ccnc(-c3ccnc(NCC4CC4)c3)c2)c(C(N)=O)n1` [Example 5, N-(3-carbamoyl-1-methyl-1H-pyrazol-4-yl)-2′-(cyclopropylmethylamino)-2,4′-bipyridine-4-carboxamide] yielded an IC50 of 1450 nM.
Take `Cn1cc(NC(=O)c2cccc(-c3ccnc(N)c3)n2)c(C(N)=O)n1` [Example 6, 2′-amino-N-(3-carbamoyl-1-methyl-1H-pyrazol-4-yl)-[2,4′-bipyridine]-6-carboxamide]: the IC50 amounted to 101 nM.
`Cn1cc(NC(=O)c2cncc(-c3ccnc(NCC4CC4)c3)c2)c(C(N)=O)n1` [Example 7, N-(3-carbamoyl-1-methyl-1H-pyrazol-4-yl)-2′-(cyclopropylmethylamino)-3,4′-bipyridine-5-carboxamide] gave an IC50 of 1100 nM.
For `Cn1ncc(NC(=O)c2cccc(-c3ccnc(NCC4CC4)c3)n2)c1C(N)=O` [Example 8, N-(5-carbamoyl-1-methyl-1H-pyrazol-4-yl)-2′-(cyclopropylmethylamino)-2,4′-bipyridine-6-carboxamide] the value was 2720 nM; for `Cn1cc(NC(=O)c2cccc(N3CCOCC3)n2)c(C(N)=O)n1` [Example 9, N-(3-carbamoyl-1-methyl-1H-pyrazol-4-yl)-6-morpholinopicolinamide], 3220 nM; for `Cn1cc(NC(=O)c2cccc(N3CCNCC3)n2)c(C(N)=O)n1` [Example 10, N-(3-carbamoyl-1-methyl-1H-pyrazol-4-yl)-6-(piperazin-1-yl)picolinamide], 3450 nM.
In the case of `Cn1cc(NC(=O)c2cccc(-c3ccncc3)n2)c(C(N)=O)n1` [Example 11, N-(3-carbamoyl-1-methyl-1H-pyrazol-4-yl)-2,4′-bipyridine-6-carboxamide], the IC50 was 1900 nM.
For `Cn1cc(NC(=O)c2cccc(-c3cccnc3)n2)c(C(N)=O)n1` [Example 12, N-(3-carbamoyl-1-methyl-1H-pyrazol-4-yl)-[2,3′-bipyridine]-6-carboxamide] the value was 212 nM; for `COc1cccc(-c2cccc(C(=O)Nc3cn(C)nc3C(N)=O)n2)c1` [Example 13, N-(3-carbamoyl-1-methyl-1H-pyrazol-4-yl)-6-(3-methoxyphenyl)picolinamide], 637 nM; for `COCCNc1cc(-c2cccc(C(=O)Nc3cn(C)nc3C(N)=O)n2)ccn1` [Example 15, N-(3-carbamoyl-1-methyl-1H-pyrazol-4-yl)-2′-((2-methoxyethyl)amino)-[2,4′-bipyridine]-6-carboxamide], 187 nM.
Consider `Cn1cc(NC(=O)c2cccc(-c3ccnc(NCC(F)F)c3)n2)c(C(N)=O)n1` [Example 16, N-(3-carbamoyl-1-methyl-1H-pyrazol-4-yl)-2′-((2,2-difluoroethyl)amino)-[2,4′-bipyridine]-6-carboxamide], for which the IC50 was determined as 196 nM.
In turn, `Cn1cc(NC(=O)c2cccc(-c3ccnc(NCC4CCOCC4)c3)n2)c(C(N)=O)n1` [Example 17, N-(3-carbamoyl-1-methyl-1H-pyrazol-4-yl)-2′-(((tetrahydro-2H-pyran-4-yl)methyl)amino)-[2,4′-bipyridine]-6-carboxamide] gave an IC50 of 477 nM.
With `Cn1cc(NC(=O)c2cccc(-c3ccnc(NCC(F)(F)F)c3)n2)c(C(N)=O)n1` [Example 18, N-(3-carbamoyl-1-methyl-1H-pyrazol-4-yl)-2′-((2,2,2-trifluoroethyl)amino)-[2,4′-bipyridine]-6-carboxamide], the IC50 was 127 nM.
`Cn1cc(NC(=O)c2ccnc(-c3ccnc(NCC4CC4)c3)n2)c(C(N)=O)n1` [Example 19, N-(3-carbamoyl-1-methyl-1H-pyrazol-4-yl)-2-(2-((cyclopropylmethyl)amino)pyridin-4-yl)pyrimidine-4-carboxamide] yielded an IC50 of 283 nM.
As to `COc1ncccc1-c1cccc(C(=O)Nc2cn(C)nc2C(N)=O)n1` [Example 20, N-(3-carbamoyl-1-methyl-1H-pyrazol-4-yl)-2′-methoxy-[2,3′-bipyridine]-6-carboxamide], the IC50 was 2130 nM.
Turning to `Cn1cc(NC(=O)c2cccc(-c3cccc(OC(F)(F)F)c3)n2)c(C(N)=O)n1` [Example 21, N-(3-carbamoyl-1-methyl-1H-pyrazol-4-yl)-6-(3-(trifluoromethoxy)phenyl)picolinamide], the IC50 was determined as 2260 nM.
`Cn1cc(NC(=O)c2cccc(-c3ccsc3)n2)c(C(N)=O)n1` [Example 22, N-(3-carbamoyl-1-methyl-1H-pyrazol-4-yl)-6-(thiophen-3-yl)picolinamide]: half-maximal inhibition (IC50) required 362 nM.
As to `Cn1cc(NC(=O)c2cccc(-c3ccc(N4CCOCC4)nc3)n2)c(C(N)=O)n1` [Example 23, N-(3-carbamoyl-1-methyl-1H-pyrazol-4-yl)-6′-morpholino-[2,3′-bipyridine]-6-carboxamide], inhibition was half-maximal at 1100 nM (IC50).
The compound `CNC(=O)c1cccc(-c2cccc(C(=O)Nc3cn(C)nc3C(N)=O)n2)c1` [Example 24, N-(3-carbamoyl-1-methyl-1H-pyrazol-4-yl)-6-(3-(methylcarbamoyl)phenyl)picolinamide] returned an IC50 of 201 nM.
On to `Cn1cc(-c2cccc(C(=O)Nc3cn(C)nc3C(N)=O)n2)cn1` [Example 25, N-(3-carbamoyl-1-methyl-1H-pyrazol-4-yl)-6-(1-methyl-1H-pyrazol-4-yl)picolinamide], for which 32 nM corresponded to half-maximal inhibition (IC50).
In the case of `Cn1cc(NC(=O)c2cccc(C3=CCS(=O)(=O)CC3)n2)c(C(N)=O)n1` [Example 26, N-(3-carbamoyl-1-methyl-1H-pyrazol-4-yl)-6-(1,1-dioxido-3,6-dihydro-2H-thiopyran-4-yl)picolinamide], the midpoint of inhibition, the IC50, lay at 1300 nM.
The compound `Cn1cc(NC(=O)c2cccc(C3=CCCOC3)n2)c(C(N)=O)n1` [Example 27, N-(3-carbamoyl-1-methyl-1H-pyrazol-4-yl)-6-(5,6-dihydro-2H-pyran-3-yl)picolinamide] gave an IC50 of 134 nM.
The figure for `Cn1cc(NC(=O)c2cccc(-c3ccc(C4CC4)nc3)n2)c(C(N)=O)n1` [Example 28, N-(3-carbamoyl-1-methyl-1H-pyrazol-4-yl)-6′-cyclopropyl-[2,3′-bipyridine]-6-carboxamide] is 94 nM; for `Cn1cc(NC(=O)c2cccc(-c3cncc(Cl)c3)n2)c(C(N)=O)n1` [Example 29, N-(3-carbamoyl-1-methyl-1H-pyrazol-4-yl)-5′-chloro-[2,3′-bipyridine]-6-carboxamide] it is 91 nM; for `Cn1cc(NC(=O)c2cccc(C3=CCOCC3)n2)c(C(N)=O)n1` [Example 30, N-(3-carbamoyl-1-methyl-1H-pyrazol-4-yl)-6-(3,6-dihydro-2H-pyran-4-yl)picolinamide] it is 426 nM.
The figure for `Cn1cc(NC(=O)c2cccc(-c3cnccc3Cl)n2)c(C(N)=O)n1` [Example 31, N-(3-carbamoyl-1-methyl-1H-pyrazol-4-yl)-4′-chloro-[2,3′-bipyridine]-6-carboxamide] is 620 nM.
Take `CN1CCC(c2cccc(C(=O)Nc3cn(C)nc3C(N)=O)n2)=CC1=O` [Example 32, N-(3-carbamoyl-1-methyl-1H-pyrazol-4-yl)-1′-methyl-6′-oxo-1′,2′,3′,6′-tetrahydro-[2,4′-bipyridine]-6-carboxamide]: the IC50 came to 82 nM.
In turn, `CN1CCC=C(c2cccc(C(=O)Nc3cn(C)nc3C(N)=O)n2)C1` [Example 33, N-(3-carbamoyl-1-methyl-1H-pyrazol-4-yl)-1′-methyl-1′,2′,5′,6′-tetrahydro-[2,3′-bipyridine]-6-carboxamide] returned an IC50 of 739 nM.
`CN1CCC(CNC(=O)c2nn(C)cc2NC(=O)c2cccc(-c3ccnc(NCC4CC4)c3)n2)C1` (stereo not shown) [Example 34, 2′-((cyclopropylmethyl)amino)-N-(1-methyl-3-(((1-methylpyrrolidin-3-yl)methyl)carbamoyl)-1H-pyrazol-4-yl)-[2,4′-bipyridine]-6-carboxamide] yielded an IC50 of 729 nM.
As to `Cn1cc(NC(=O)c2cccc(-c3ccnc(NCC4CC4)c3)n2)c(C(=O)NCCN2CCCC2)n1` [Example 35, 2′-((cyclopropylmethyl)amino)-N-(1-methyl-3-((2-(pyrrolidin-1-yl)ethyl)carbamoyl)-1H-pyrazol-4-yl)-[2,4′-bipyridine]-6-carboxamide], the IC50 is 1060 nM.
In turn, `Cn1cc(NC(=O)c2cccc(-c3ccnc(NCC4CC4)c3)n2)c(C(=O)NCc2ncc[nH]2)n1` [Example 36, N-(3-(((1H-imidazol-2-yl)methyl)carbamoyl)-1-methyl-1H-pyrazol-4-yl)-2′-((cyclopropylmethyl)amino)-[2,4′-bipyridine]-6-carboxamide] returned an IC50 of 1540 nM.

The values above are taken from patent publication US9586948B2, “Inhibitors of IRAK4 activity” (MERCK SHARP & DOHME CORP., priority 2012, dated 2017).
